Consider six compounds from ChEMBL document CHEMBL5233229, “Recent advances in the development of ubiquitin-specific-processing protease 7 (USP7) inhibitors” (Eur J Med Chem, 2020).

Structures are written as SMILES. Values after ≈ are worked out from the molar mass of the structure shown.

Data set [1] addresses Ubiquitin carboxyl-terminal hydrolase 7 (Homo sapiens, UniProt Q93009). Briefly: Inhibition of human his tagged USP7 (208 to 560 residues) catalytic domain expressed in insect sf9 cells using monoubiquitinated ubiquitin-rhodamine as substrate incubated for 1 hrs by fluorescence based assay.
The test system of the next data set is MM1.S. Briefly: Anticancer activity against human MM1.S cells assessed as cell growth inhibition incubated for 120 hrs by CellTiter-Glo assay. In kind it is functional, cell-based. On the technique in general: Cellular ATP, detected with luciferase, serves as a proxy for viable cell number.
A short description of data set [2]: Aqueous solubility of compound. In kind it is physicochemical.
For data set [3], the target named is Ubiquitin carboxyl-terminal hydrolase 9X (Homo sapiens, UniProt Q93008). Briefly: Inhibition of USP9x (unknown origin).
Data set [4] deals with T1, Ubiquitin carboxyl-terminal hydrolase 14 (Homo sapiens, UniProt P54578). Briefly: Inhibition of human his tagged USP14 assessed as dissociation constant by SPR analysis. (In SPR one partner is held on a chip, and binding of the other changes the refractive index at the surface.)
The target of data set [5] is T1, Ubiquitin carboxyl-terminal hydrolase 14. Briefly: Inhibition of human his tagged USP14 by SPR analysis.
Data set [6] deals with T2, Ubiquitin carboxyl-terminal hydrolase isozyme L5 (Homo sapiens, UniProt Q9Y5K5).
T2 sequence (Q9Y5K5 whole entry): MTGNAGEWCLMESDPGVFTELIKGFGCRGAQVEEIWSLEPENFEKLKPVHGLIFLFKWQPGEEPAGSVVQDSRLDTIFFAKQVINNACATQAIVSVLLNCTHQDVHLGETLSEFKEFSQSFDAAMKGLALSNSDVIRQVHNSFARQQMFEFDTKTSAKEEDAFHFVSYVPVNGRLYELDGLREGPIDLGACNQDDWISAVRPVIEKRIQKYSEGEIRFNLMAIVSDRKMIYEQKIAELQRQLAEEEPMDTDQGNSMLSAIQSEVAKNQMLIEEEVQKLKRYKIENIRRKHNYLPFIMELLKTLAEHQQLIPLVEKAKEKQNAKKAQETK
Briefly: Inhibition of human his tagged UCHL5 assessed as dissociation constant by SPR analysis.

In data set [7] the target is T1, Ubiquitin carboxyl-terminal hydrolase 14. Briefly: Inhibition of human USP14 using Ub-PA as substrate assessed as deubiquitination level incubated for 1 hr by SDS-PAGE assay.
In data set [8] the target is T3, Ubiquitin carboxyl-terminal hydrolase 5 (Homo sapiens, UniProt P45974).
T3 sequence (P45974 whole entry): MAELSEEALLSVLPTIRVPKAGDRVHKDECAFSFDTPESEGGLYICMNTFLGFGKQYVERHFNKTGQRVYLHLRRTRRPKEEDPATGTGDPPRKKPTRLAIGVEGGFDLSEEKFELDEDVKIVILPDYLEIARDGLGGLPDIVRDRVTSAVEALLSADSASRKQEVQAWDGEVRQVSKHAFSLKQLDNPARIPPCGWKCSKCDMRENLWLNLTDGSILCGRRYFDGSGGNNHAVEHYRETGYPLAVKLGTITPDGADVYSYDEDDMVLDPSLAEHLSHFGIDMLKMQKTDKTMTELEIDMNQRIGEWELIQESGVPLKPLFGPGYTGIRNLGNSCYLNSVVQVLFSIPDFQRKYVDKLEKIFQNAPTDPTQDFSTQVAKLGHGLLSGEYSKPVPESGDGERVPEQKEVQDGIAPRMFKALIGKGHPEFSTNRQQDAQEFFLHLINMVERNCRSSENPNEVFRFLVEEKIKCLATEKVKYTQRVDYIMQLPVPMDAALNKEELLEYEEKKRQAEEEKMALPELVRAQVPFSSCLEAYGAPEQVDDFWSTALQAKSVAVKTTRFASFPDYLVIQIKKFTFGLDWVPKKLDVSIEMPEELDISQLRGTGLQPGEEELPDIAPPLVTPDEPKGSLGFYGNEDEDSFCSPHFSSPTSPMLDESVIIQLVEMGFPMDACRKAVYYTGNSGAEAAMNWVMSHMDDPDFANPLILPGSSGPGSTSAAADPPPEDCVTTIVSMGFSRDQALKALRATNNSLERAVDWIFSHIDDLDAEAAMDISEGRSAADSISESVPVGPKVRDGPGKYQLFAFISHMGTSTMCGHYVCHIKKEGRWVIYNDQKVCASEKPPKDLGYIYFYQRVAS
The experiment in a line: Inhibition of human USP5 using Ub-PA as substrate assessed as deubiquitination level incubated for 1 hr by SDS-PAGE assay.

The target of data set [9] is Ubiquitin carboxyl-terminal hydrolase 24 (Homo sapiens, UniProt Q9UPU5). Briefly: Inhibition of USP24 (unknown origin).
Data set [10] concerns the target T4, Ubiquitin carboxyl-terminal hydrolase 8 (Homo sapiens, UniProt P40818).
T4 sequence (P40818 whole entry): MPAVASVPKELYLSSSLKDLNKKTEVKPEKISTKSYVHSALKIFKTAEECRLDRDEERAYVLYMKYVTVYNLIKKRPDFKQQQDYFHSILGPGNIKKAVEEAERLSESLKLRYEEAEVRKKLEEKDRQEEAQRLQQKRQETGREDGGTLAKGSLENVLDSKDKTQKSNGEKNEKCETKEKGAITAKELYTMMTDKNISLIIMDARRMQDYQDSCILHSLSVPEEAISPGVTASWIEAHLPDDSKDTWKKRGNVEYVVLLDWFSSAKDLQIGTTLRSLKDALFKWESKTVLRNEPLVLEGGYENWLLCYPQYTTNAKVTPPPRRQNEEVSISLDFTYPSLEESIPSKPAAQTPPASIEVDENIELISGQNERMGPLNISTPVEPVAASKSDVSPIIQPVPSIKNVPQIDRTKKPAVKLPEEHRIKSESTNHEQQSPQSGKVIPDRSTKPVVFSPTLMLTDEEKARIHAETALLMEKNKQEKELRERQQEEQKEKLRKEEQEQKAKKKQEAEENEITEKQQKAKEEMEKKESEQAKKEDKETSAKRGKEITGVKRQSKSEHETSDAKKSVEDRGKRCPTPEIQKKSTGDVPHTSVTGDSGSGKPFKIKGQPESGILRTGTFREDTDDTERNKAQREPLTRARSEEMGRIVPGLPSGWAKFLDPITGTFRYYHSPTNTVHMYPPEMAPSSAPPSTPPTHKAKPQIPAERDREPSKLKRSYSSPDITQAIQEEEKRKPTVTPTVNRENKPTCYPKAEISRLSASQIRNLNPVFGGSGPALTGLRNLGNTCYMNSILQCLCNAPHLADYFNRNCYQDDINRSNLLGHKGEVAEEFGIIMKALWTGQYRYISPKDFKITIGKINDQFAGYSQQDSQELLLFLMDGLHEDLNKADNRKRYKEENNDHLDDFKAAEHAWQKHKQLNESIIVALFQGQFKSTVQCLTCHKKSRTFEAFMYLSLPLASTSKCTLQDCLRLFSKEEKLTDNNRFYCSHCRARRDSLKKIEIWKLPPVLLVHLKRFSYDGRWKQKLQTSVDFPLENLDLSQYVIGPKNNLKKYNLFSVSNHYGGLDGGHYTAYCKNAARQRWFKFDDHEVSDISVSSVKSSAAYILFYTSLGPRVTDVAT
Briefly: Inhibition of human USP8 using Di-Ub IQF as substrate incubated for 15 mins by K63-2 assay.

Data set [11] addresses T5, Ubiquitin carboxyl-terminal hydrolase 2 (Homo sapiens, UniProt O75604).
T5 sequence (O75604 whole entry): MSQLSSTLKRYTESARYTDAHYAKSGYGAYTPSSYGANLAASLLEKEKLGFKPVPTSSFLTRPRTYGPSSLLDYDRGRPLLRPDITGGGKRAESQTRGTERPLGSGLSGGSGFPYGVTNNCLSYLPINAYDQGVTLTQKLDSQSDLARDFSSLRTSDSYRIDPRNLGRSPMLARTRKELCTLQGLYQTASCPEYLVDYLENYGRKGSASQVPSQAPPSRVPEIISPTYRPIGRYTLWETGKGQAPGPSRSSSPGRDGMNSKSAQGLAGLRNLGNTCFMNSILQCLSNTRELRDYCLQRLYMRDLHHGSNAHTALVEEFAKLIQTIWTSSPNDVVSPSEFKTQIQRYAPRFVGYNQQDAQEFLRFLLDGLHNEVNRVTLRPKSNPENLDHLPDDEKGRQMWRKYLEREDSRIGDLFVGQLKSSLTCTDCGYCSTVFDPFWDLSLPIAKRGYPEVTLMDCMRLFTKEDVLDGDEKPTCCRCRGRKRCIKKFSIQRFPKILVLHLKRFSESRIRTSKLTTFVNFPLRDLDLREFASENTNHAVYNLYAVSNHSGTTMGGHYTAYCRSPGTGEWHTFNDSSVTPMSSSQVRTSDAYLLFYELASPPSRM
Briefly: Inhibition of human USP2 using Di-Ub IQF as substrate incubated for 15 mins by K63-2 assay.

A further data set relates to HCT-116. The experiment in a line: Anticancer activity against human HCT-116 cells assessed as cell growth inhibition incubated for 72 hrs by CellTiter Glo assay. Type of data set: functional, cell-based. The settings on record: HCT-116, 72 h.

T1 sequence (P54578 whole entry): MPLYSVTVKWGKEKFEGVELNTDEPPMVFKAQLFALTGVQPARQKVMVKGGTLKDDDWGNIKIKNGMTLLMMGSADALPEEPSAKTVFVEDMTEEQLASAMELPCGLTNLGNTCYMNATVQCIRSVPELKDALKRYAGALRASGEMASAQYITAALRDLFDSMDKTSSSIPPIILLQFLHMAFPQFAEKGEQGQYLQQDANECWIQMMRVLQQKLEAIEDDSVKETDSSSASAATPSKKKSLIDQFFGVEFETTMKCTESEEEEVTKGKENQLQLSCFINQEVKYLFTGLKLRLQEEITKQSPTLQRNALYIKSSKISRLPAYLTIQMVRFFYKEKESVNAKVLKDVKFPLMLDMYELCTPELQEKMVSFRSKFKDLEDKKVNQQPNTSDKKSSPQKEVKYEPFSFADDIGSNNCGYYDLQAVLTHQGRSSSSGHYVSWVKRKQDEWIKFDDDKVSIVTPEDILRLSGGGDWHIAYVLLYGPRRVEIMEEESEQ
Chain of Ubiquitin carboxyl-terminal hydrolase 24 (Q9UPU5 whole entry): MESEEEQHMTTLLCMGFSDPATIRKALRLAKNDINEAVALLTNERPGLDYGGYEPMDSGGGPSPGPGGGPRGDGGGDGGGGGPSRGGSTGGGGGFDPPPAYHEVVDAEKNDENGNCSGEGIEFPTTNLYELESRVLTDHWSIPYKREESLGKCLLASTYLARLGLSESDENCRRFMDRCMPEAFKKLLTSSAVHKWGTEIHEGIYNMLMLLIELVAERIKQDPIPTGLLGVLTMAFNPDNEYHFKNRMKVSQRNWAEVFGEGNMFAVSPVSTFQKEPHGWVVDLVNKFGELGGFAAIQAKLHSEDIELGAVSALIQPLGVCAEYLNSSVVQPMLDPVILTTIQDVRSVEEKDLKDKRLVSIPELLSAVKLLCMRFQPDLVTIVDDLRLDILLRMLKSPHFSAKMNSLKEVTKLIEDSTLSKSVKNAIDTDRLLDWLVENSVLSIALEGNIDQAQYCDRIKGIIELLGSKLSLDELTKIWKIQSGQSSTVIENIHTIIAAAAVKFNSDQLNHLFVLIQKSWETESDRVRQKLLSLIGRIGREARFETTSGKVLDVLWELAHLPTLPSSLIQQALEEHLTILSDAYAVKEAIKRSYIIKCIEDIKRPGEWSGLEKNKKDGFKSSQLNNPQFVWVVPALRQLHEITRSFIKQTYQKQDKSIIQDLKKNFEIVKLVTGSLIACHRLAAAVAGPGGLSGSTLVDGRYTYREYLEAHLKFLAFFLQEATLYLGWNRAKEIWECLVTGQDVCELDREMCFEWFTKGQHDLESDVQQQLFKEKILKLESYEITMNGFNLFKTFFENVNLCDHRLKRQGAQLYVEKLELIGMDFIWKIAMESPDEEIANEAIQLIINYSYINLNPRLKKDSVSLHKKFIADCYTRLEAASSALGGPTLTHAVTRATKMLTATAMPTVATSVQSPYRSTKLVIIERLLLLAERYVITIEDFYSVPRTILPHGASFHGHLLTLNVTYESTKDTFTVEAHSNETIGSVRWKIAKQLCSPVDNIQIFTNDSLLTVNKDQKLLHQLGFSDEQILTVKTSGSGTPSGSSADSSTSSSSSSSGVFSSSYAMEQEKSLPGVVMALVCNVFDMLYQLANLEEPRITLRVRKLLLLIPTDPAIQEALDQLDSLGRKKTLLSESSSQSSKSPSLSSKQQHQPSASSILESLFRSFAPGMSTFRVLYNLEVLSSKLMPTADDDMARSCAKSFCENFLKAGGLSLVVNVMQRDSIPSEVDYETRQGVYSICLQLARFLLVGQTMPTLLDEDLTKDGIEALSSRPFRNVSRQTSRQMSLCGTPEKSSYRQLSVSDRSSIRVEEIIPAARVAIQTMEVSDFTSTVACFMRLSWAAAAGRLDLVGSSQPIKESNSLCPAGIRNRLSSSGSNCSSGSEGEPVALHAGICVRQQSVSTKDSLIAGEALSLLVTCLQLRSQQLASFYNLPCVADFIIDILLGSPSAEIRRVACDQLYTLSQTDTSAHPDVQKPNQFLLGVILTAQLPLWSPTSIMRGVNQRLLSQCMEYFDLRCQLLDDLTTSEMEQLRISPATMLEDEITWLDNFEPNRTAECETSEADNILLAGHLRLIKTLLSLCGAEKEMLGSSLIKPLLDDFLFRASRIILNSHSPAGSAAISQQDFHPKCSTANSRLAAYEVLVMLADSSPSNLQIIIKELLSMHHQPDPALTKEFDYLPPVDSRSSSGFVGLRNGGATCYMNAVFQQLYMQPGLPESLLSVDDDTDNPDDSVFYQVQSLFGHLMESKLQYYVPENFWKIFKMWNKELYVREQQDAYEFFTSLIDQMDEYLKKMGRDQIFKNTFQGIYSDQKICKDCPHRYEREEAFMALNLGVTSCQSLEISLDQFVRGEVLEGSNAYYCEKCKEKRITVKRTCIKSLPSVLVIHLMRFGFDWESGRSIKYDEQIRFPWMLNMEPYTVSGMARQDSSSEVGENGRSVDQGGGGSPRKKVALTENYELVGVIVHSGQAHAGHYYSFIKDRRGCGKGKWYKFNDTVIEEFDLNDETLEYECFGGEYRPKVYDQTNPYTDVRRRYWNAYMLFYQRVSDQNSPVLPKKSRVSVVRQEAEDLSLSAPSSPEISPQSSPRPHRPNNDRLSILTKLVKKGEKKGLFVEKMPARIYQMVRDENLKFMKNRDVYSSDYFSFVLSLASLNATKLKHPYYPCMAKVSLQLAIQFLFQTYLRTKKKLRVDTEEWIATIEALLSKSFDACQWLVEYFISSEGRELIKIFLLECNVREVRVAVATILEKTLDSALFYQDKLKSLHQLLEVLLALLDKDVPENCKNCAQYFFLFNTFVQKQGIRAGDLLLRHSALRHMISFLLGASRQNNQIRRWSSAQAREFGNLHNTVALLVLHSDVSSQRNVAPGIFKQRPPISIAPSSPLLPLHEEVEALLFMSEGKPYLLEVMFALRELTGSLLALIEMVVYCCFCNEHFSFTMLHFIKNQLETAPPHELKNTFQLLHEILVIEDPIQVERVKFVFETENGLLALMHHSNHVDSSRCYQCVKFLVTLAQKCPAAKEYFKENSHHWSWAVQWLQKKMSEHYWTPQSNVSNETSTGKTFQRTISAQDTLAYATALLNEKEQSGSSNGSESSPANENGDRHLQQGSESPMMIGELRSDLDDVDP
Chain of Ubiquitin carboxyl-terminal hydrolase 7 (Q93009 whole entry, the tested form may be a part): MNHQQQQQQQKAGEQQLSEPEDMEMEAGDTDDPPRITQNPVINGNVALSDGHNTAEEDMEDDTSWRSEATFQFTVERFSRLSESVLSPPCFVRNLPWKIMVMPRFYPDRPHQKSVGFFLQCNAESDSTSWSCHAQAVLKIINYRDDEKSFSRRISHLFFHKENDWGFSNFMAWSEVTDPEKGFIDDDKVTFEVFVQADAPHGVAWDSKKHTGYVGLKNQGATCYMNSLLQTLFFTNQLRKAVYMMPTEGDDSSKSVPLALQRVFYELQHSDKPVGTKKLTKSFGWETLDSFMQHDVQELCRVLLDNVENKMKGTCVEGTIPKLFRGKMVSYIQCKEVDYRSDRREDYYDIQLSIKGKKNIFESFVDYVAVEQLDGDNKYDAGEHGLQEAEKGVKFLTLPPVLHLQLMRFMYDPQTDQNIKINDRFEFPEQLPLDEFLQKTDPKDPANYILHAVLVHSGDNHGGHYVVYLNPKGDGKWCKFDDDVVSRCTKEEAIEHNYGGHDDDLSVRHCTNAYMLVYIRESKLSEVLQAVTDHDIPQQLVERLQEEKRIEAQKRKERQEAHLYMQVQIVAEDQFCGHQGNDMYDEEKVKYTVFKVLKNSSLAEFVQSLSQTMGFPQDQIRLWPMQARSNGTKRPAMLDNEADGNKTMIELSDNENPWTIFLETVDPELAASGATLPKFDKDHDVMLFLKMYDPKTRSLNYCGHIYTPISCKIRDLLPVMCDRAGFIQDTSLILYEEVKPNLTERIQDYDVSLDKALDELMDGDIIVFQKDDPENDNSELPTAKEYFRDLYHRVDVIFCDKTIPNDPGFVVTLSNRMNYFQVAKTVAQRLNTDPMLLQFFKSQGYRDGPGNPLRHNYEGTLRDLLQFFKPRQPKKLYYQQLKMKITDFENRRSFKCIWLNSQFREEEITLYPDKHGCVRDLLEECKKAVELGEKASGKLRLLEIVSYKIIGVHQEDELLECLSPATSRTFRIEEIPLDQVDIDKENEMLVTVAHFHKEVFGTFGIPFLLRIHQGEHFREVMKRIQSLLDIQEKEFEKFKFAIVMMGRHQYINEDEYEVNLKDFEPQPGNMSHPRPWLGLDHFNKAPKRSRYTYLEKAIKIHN

For `O=C(C[C@@H](C(F)F)n1ccc(F)n1)N1CCC(O)(Cn2cnc3c(cnn3-c3ccc(F)cc3)c2=O)CC1`, the IC50 in data set [1] came to 0.069 µM; in the data set with MM1.S, 0.033 µM.
In data set [2], `CCC[C@H](NC(=O)/C(C#N)=C/c1cccc(Br)n1)c1ccccc1` yielded a solubility of 2.3 µM (≈ 0.884 µg/mL). In data set [3], this compound yielded an IC50 of 2.5 µM.
With `C=CC(=O)N1CC/C(=C\c2ccc(F)c([N+](=O)[O-])c2)C(=O)/C(=C/c2ccc(F)c([N+](=O)[O-])c2)C1`, the Kd in data set [4] turned out to be 14 µM; in data set [6], 1.5 µM. Also, the IC5 in data set [5] worked out at 10 µM.
Take `Cc1cc(C(=O)CN2CCCCC2)c(C)n1-c1ccc(F)cc1`: the values for the IC50 in data set [7] and in data set [8] were 0.68 µM and 29.1 µM, respectively.
As to `CCCC(NC(=O)/C(C#N)=C/c1nc(Cl)ccc1Cl)c1ccc(OCCN2CCOCC2)cc1` (stereo not drawn), in data set [9], the IC50 turned out to be 2.5 µM.
As to `Cc1ccc(S(=O)(=O)Nc2cc(C(F)(F)F)ccc2C(=O)Nc2nc(-c3ccccc3)cs2)cc1`, the results for the concentration for half-maximal inhibition (IC50) in [10] and in [11] were 0.95 µM and 1.1 µM, respectively. Further, the EC50 with HCT-116 came to 3.6 µM.

Broadly, the IC50 is the concentration at which inhibition is half-maximal. In general, solubility refers to how much of the substance goes into solution per volume. A low value points to little dissolved substance. A word on the Kd: it is the constant that tells how readily two partners part at equilibrium. The term EC50 denotes the concentration needed to bring the measured effect to its halfway point.
